For orientation: CC50 means the concentration at which the toxic effect on the cells reaches its halfway point. A high value points to lower toxicity to the cells. Broadly, the IC50 is the concentration that inhibits the measured activity by half. Low values mean greater potency in that assay, high ones weaker potency in that assay.

Calls of active or inactive are those of the source. The calls are words filed in the database; no cut-off is given here. Bridge positions count the residues as written; N and C are the ends. Square brackets hold non-standard residues; d marks the D form. Peptide text beside a SMILES is read from it.

Ten compounds from ChEMBL document CHEMBL3745605, “Aspernigrins with anti-HIV-1 activities from the marine-derived fungus Aspergillus niger SCSIO Jcsw6F30” (Bioorg Med Chem Lett, 2016) can be followed below.

Series [1] in a line: Selectivity index, ratio of CC50 for human TZM-bl cells to IC50 for HIV-1 SF162 infected in TZM-bl cells. Type of series: functional.
Series [2] in a line: Cytotoxicity against human TZM-bl cells after 2 days by colorimetric XTT assay. Type of series: cell-based.
Series [3] relates to Human immunodeficiency virus 1. Nature of the series: Antiviral activity against HIV-1 SF162 infected in TZM-bl cells after 2 days by luciferase reporter gene assay. Type of series: functional, cell-based. Particulars: Human immunodeficiency virus 1, SF162 ISOLATE, 48 h. Background: Reporter assays use an easily measured gene product as a stand-in for the process of interest.

For series [4], the system named is Human immunodeficiency virus 1. Kind of series: Antiviral activity against HIV-1 SF162 infected in TZM-bl cells at 50 uM after 2 days by luciferase reporter gene assay. The format is functional, cell-based. The note with it: SF162 ISOLATE.

With `COc1cc(O)c2c(O)c3c(=O)cc(C)oc3cc2c1` [RUBROFUSARIN], the “Ratio CC50/IC50” value in series [1] was 18.1. This compound also displayed a CC50 at 48 h in series [2] of 1020 µM. In series [3], this compound yielded an IC50 of 56.2 µM.
For the compound `COc1cc([C@H](Cc2ccccc2)n2cc(C(=O)NC(=O)C[C@H](C)C(=O)O)c(=O)cc2Cc2ccccc2)oc(=O)c1`, the “Ratio CC50/IC50” value in series [1] was determined as 7.5. The CC50 at 48 h in series [2] turned out to be 35 µM. In series [3], this compound displayed an IC50 of 4.7 µM.
In series [3], `COc1ccc(S(=O)(=O)O)cc1/N=N/c1c(S(=O)(=O)O)cc2cc(Nc3nc(Nc4ccccc4)nc(Nc4cc(C)c(/N=N/c5cc(S(=O)(=O)O)cc6cc(S(=O)(=O)O)cc(O)c56)cc4OC)n3)ccc2c1O` came in with an IC50 of 1.8 µM.
As to `COC(=O)[C@@H](C)CC(=O)NC(=O)c1cn([C@@H](Cc2ccccc2)c2cc(OC)cc(=O)o2)c(Cc2ccccc2)cc1=O`, in series [4], the outcome was inactive.
`Nc1nc(NC2CC2)c2ncn([C@H]3C=C[C@@H](CO)C3)c2n1` [ABACAVIR]: the concentration for half-maximal inhibition (IC50) in series [3] was 0.8 µM.
Turning to `CC(C)C[C@@H]1NC(=O)[C@@H](CC(C)C)NC(=O)[C@H](C(C)C)NC(=O)[C@H]2CSSC[C@@H](NC1=O)C(=O)N2` (cyclo(L[dC][dC]V[dL]); disulfide 2-3), in series [1], the “Ratio CC50/IC50” value stood at 11.4. Also, the CC50 at 48 h in series [2] was 16.4 µM. In series [3], this compound yielded an IC50 of 1.4 µM.
Take `COc1cc(OC)c2c(O)c3c(=O)cc(C)oc3cc2c1`: the outcome in series [4] was inactive.
With `COc1cc([C@H](Cc2ccccc2)n2cc(C(N)=O)c(=O)cc2Cc2ccccc2)oc(=O)c1`, the result in series [4] was inactive.
With `COc1cc(O)cc2cc3c(c(O)c12)C(=O)CC(C)(O)O3` (stereo not drawn), the outcome in series [4] was inactive.
Take `NC(=O)c1c[nH]c(Cc2ccccc2)cc1=O`: the “Ratio CC50/IC50” value in series [1] was determined as 7. For the same compound, in series [2], the midpoint of cytotoxicity, the CC50 at 48 h, lay at 583 µM. 83.2 µM corresponded to half-maximal inhibition in series [3] (IC50).
